# Measured values published in ChEMBL document CHEMBL1201862, “PubChem BioAssay data set” (2004).
#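 How tested: cells in 96-well plates exposed to compound for 48 hours at five concentrations. At the GI50, growth is halved.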 The source made the active and inactive calls. Cut-off read from the data, not from the text of the source: active = GI50 up to about 1.1 µM and inactive = higher.
# Columns and labels:
# Experiment in all cases: growth of human tumour cells (NCI), 48 h
# OVCAR-4 = test system: OVCAR-4
# SR = test system: SR
# HCT-15 = test system: HCT-15
# OVCAR-8 = test system: OVCAR-8
# RPMI-8226 = test system: RPMI-8226
# HCT-116 = test system: HCT-116
# SF-295 = test system: SF-295
# HOP-62 = test system: HOP-62
# KM12 = test system: KM12
# SNB-19 = test system: SNB-19
# UACC-257 = test system: UACC-257
# NCI-H460 = test system: NCI-H460
# TK-10 = test system: TK-10
# NCI/ADR-RES = test system: NCI/ADR-RES
# Malme-3M = test system: Malme-3M
# EKVX = test system: EKVX
# HT-29 = test system: HT-29
# CAKI-1 = test system: CAKI-1
# SK-MEL-5 = test system: SK-MEL-5
# 786-0 = test system: 786-0
# NCI-H226 = test system: NCI-H226
# CCRF-CEM = test system: CCRF-CEM
# M14 = test system: M14
# SNB-75 = test system: SNB-75
# U-251 = test system: U-251
# PC-3 = test system: PC-3
# MDA-N = test system: MDA-N
# COLO 205 = test system: COLO 205
# A549 = test system: A549
# HCC 2998 = test system: HCC 2998
# SN12C = test system: SN12C
# MDA-MB-231 = test system: MDA-MB-231
# MOLT-4 = test system: MOLT-4
# RXF 393 = test system: RXF 393
# SK-MEL-28 = test system: SK-MEL-28
# T47D = test system: T47D
# OVCAR-5 = test system: OVCAR-5
# HOP-92 = test system: HOP-92
# DU-145 = test system: DU-145
# LOX IMVI = test system: LOX IMVI
# BT-549 = test system: BT-549
# A498 = test system: A498
# K562 = test system: K562
# NCI-H23 = test system: NCI-H23
# MCF7 = test system: MCF7
# ACHN = test system: ACHN
# OVCAR-3 = test system: OVCAR-3
# SF-268 = test system: SF-268
# HL-60 = test system: HL-60
# SF-539 = test system: SF-539
# MDA-MB-435 = test system: MDA-MB-435
# SK-OV-3 = test system: SK-OV-3
# UACC-62 = test system: UACC-62
# IGROV-1 = test system: IGROV-1
# UO-31 = test system: UO-31
# SK-MEL-2 = test system: SK-MEL-2
# NCI-H522 = test system: NCI-H522
# Hs-578T = test system: Hs-578T
# SW-620 = test system: SW-620
smiles,measurement,setting,value
C=C1CC(C)(c2ccc(Nc3nc4ccccc4c4occc34)cc2)OC1=O (stereo unspecified),GI50,OVCAR-4,1.77 µM (inactive)
same,GI50,SR,1.63 µM (inactive)
same,GI50,HCT-15,1.94 µM
same,GI50,OVCAR-8,2.66 µM (inactive)
same,GI50,RPMI-8226,1.69 µM (inactive)
same,GI50,HCT-116,1.34 µM (inactive)
same,GI50,SF-295,12.8 µM (inactive)
same,GI50,HOP-62,12.5 µM (inactive)
same,GI50,KM12,5.97 µM (inactive)
same,GI50,SNB-19,7.45 µM (inactive)
same,GI50,UACC-257,0.0186 µM (active)
same,GI50,NCI-H460,14.7 µM (inactive)
same,GI50,TK-10,4.86 µM (inactive)
same,GI50,NCI/ADR-RES,4.44 µM (inactive)
same,GI50,Malme-3M,17.2 µM (inactive)
same,GI50,EKVX,12.1 µM (inactive)
same,GI50,HT-29,3.61 µM (inactive)
same,GI50,CAKI-1,15.8 µM (inactive)
same,GI50,SK-MEL-5,5.09 µM (inactive)
same,GI50,786-0,2.16 µM (inactive)
same,GI50,NCI-H226,< 0.01 µM (active)
same,GI50,CCRF-CEM,1.12 µM (active)
same,GI50,M14,2 µM (inactive)
same,GI50,SNB-75,1.92 µM (inactive)
same,GI50,U-251,5.33 µM (inactive)
same,GI50,PC-3,4.36 µM (inactive)
same,GI50,MDA-N,3.29 µM (inactive)
same,GI50,COLO 205,3.59 µM (inactive)
same,GI50,A549,4.52 µM (inactive)
same,GI50,HCC 2998,2.32 µM (inactive)
same,GI50,SN12C,1.93 µM (inactive)
same,GI50,MDA-MB-231,1.75 µM (inactive)
same,GI50,MOLT-4,1.82 µM (inactive)
same,GI50,RXF 393,2.08 µM (inactive)
same,GI50,SK-MEL-28,13.9 µM (inactive)
same,GI50,T47D,3.03 µM (inactive)
same,GI50,OVCAR-5,14.1 µM (inactive)
same,GI50,HOP-92,1.95 µM (inactive)
same,GI50,DU-145,8.13 µM (inactive)
same,GI50,LOX IMVI,1.95 µM (inactive)
same,GI50,BT-549,2.37 µM (inactive)
same,GI50,A498,18.9 µM (inactive)
same,GI50,K562,4.71 µM (inactive)
same,GI50,NCI-H23,1.22 µM (inactive)
same,GI50,MCF7,3.32 µM (inactive)
same,GI50,ACHN,4.26 µM (inactive)
same,GI50,OVCAR-3,3.74 µM (inactive)
same,GI50,SF-268,2.93 µM (inactive)
same,GI50,HL-60,2.07 µM (inactive)
same,GI50,SF-539,2 µM (inactive)
same,GI50,MDA-MB-435,1.91 µM (inactive)
same,GI50,SK-OV-3,10.8 µM (inactive)
Cc1ccc(-n2cc(-c3ccc(Cl)cc3)c3c(=N)n(N)cnc32)cc1,GI50,OVCAR-4,10.5 µM (inactive)
same,GI50,HCT-15,15.6 µM
same,GI50,OVCAR-8,14.8 µM (inactive)
same,GI50,HCT-116,7.8 µM (inactive)
same,GI50,SF-295,15.4 µM (inactive)
same,GI50,HOP-62,14.2 µM (inactive)
same,GI50,SNB-19,11.8 µM (inactive)
same,GI50,UACC-257,9.93 µM (inactive)
same,GI50,NCI-H460,10.3 µM (inactive)
same,GI50,TK-10,15.3 µM (inactive)
same,GI50,NCI/ADR-RES,13.1 µM (inactive)
same,GI50,Malme-3M,13.2 µM (inactive)
same,GI50,EKVX,16.4 µM (inactive)
same,GI50,HT-29,8.24 µM (inactive)
same,GI50,CAKI-1,18.5 µM (inactive)
same,GI50,SK-MEL-5,7.43 µM (inactive)
same,GI50,UACC-62,13.2 µM (inactive)
same,GI50,786-0,11.9 µM (inactive)
same,GI50,NCI-H226,21 µM (inactive)
same,GI50,IGROV-1,12 µM (inactive)
same,GI50,CCRF-CEM,11.3 µM (inactive)
same,GI50,M14,5.75 µM (inactive)
same,GI50,SNB-75,12.6 µM (inactive)
same,GI50,U-251,10.5 µM (inactive)
same,GI50,UO-31,11.7 µM (inactive)
same,GI50,PC-3,6.41 µM (inactive)
same,GI50,MDA-N,11.5 µM (inactive)
same,GI50,COLO 205,8.2 µM (inactive)
same,GI50,A549,15.1 µM (inactive)
same,GI50,SK-MEL-2,13.6 µM (inactive)
same,GI50,HCC 2998,6.11 µM (inactive)
same,GI50,SN12C,16 µM (inactive)
same,GI50,MDA-MB-231,12.6 µM (inactive)
same,GI50,NCI-H522,14.5 µM (inactive)
same,GI50,Hs-578T,3.71 µM (inactive)
same,GI50,RXF 393,4.69 µM (inactive)
same,GI50,SK-MEL-28,13.8 µM (inactive)
same,GI50,OVCAR-5,14.7 µM (inactive)
same,GI50,HOP-92,9.95 µM (inactive)
same,GI50,DU-145,17.5 µM (inactive)
same,GI50,LOX IMVI,14.7 µM (inactive)
same,GI50,BT-549,16.9 µM (inactive)
same,GI50,A498,15.9 µM (inactive)
same,GI50,K562,6.46 µM (inactive)
same,GI50,NCI-H23,16.1 µM (inactive)
same,GI50,MCF7,11 µM (inactive)
same,GI50,ACHN,16.2 µM (inactive)
same,GI50,OVCAR-3,13.5 µM (inactive)
same,GI50,SF-268,12.7 µM (inactive)
same,GI50,SW-620,12.4 µM (inactive)
same,GI50,HL-60,7.83 µM (inactive)
same,GI50,SF-539,13.4 µM (inactive)
same,GI50,MDA-MB-435,11.1 µM (inactive)
same,GI50,SK-OV-3,17.4 µM (inactive)
